Experimental data published in US20080009418A1, “Selective Inhibitors” (Alchemia LTD., priority 2004, published 2008).

Legend:
Human δ-opioid (DOP) = target: T1, Human δ-opioid (DOP) (Homo sapiens, UniProt P41143); assay: Radioligand binding, human δ-opioid (DOP) membranes, FlashPlate, [3H]-Bremazocine; settings: compound at 10 μM, [3H]-Bremazocine; for A1: inhibition of radioligand binding: FlashPlate
T1 construct: purchased Perkin Elmer Biosignal
In short: (§1)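 Cloned human receptor membranes were coated onto FlashPlate wells and incubated with radioligand and compound (added from a 0.5 mM DMSO daughter plate) for 1 hour at room temperature in the dark. Scintillation counting gave percent inhibition, with DMSO defining total and reference ligand defining non-specific binding.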

Human κ-Opioid (KOP) = target: T2, Human κ-Opioid (KOP) (Homo sapiens, UniProt P41145); assay: Radioligand binding, human κ-opioid (KOP) membranes, filtration, [3H]-Diprenorphine; settings: compound at 10 μM, [3H]-Diprenorphine; for A2: inhibition of radioligand binding: filtration
T2 construct: purchased Perkin Elmer Biosignal
T2 sequence (P41145 whole entry): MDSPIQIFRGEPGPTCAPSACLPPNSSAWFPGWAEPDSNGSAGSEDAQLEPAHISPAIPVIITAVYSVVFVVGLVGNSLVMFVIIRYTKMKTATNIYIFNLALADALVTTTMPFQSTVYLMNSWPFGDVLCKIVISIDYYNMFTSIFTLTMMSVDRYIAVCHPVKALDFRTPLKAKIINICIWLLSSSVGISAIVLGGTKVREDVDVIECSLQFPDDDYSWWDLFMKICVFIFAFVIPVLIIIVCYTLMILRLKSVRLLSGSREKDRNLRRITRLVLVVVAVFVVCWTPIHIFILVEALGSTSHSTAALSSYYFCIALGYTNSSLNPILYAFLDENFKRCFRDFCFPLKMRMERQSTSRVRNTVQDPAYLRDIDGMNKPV
In short: (§2)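 Percent inhibition of radioligand binding measured on recombinant human membranes: NK1 with [125I]-Substance P, KOP with [3H]-Diprenorphine. Incubation 1 h at room temperature, then harvest onto 0.3% PEI-soaked filters, cold Tris-HCl pH 7.4 washes and scintillation counting; non-specific binding from reference ligand wells.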

Human Melanocortin (MC3) = target: T3, Human Melanocortin (MC3) (Homo sapiens, UniProt P41968); assay: Radioligand binding, human melanocortin MC3 membranes, FlashPlate, [125I]-NDP-αMSH; settings: compound at 10 μM, [125I]-NDP-αMSH; for A3: inhibition of radioligand binding: FlashPlate
T3 construct: purchased Perkin Elmer Biosignal
T3 sequence (P41968 whole entry): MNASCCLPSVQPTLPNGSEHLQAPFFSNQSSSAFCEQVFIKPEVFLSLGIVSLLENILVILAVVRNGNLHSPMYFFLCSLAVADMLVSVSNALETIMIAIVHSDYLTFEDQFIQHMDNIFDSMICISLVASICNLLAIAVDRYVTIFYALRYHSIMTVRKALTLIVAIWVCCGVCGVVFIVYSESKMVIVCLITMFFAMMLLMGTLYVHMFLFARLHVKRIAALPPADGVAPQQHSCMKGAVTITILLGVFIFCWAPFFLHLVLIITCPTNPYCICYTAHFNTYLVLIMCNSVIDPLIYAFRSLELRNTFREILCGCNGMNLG
In short: as §1

Human Melanocortin (MC4) = target: T4, Human Melanocortin (MC4) (Homo sapiens, UniProt P32245); assay: Radioligand binding, human melanocortin MC4 membranes, FlashPlate, [125I]-NDP-αMSH; settings: compound at 10 μM, [125I]-NDP-αMSH; for A4: inhibition of radioligand binding: FlashPlate
T4 construct: purchased Perkin Elmer Biosignal
T4 sequence (P32245 whole entry): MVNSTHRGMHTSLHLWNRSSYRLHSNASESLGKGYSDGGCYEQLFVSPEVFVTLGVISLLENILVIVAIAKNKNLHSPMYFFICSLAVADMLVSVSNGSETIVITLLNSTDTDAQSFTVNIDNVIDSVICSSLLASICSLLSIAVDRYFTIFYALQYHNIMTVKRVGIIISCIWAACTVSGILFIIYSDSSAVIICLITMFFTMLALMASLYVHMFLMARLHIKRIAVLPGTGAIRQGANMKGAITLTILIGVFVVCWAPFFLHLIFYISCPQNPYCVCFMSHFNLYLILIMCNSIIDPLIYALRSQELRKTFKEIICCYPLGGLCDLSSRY
In short: as §1

Human melanocortin (MC5) = target: T5, Human melanocortin (MC5) (Homo sapiens, UniProt P33032); assay: Radioligand binding, human melanocortin MC5 membranes, FlashPlate, [125I]-NDP-αMSH; settings: compound at 10 μM, [125I]-NDP-αMSH; for A5: inhibition of radioligand binding: FlashPlate
T5 construct: purchased Perkin Elmer Biosignal
T5 sequence (P33032 whole entry): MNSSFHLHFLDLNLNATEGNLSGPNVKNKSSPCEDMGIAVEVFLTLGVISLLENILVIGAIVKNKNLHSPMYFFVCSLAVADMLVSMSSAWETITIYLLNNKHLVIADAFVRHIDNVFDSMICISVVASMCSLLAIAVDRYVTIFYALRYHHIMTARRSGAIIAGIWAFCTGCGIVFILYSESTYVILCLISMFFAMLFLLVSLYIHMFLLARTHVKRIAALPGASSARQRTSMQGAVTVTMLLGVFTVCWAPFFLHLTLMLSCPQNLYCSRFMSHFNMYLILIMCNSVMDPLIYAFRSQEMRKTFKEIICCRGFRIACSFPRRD
In short: as §1

[1] = target: T6, Human melanin-concentrating hormone (MCH1) (Homo sapiens, UniProt Q99705); assay: Radioligand binding, human melanin-concentrating hormone MCH1 membranes, FlashPlate, [125I]-S36057; settings: compound at 10 μM; for A6: inhibition of radioligand binding: [125I]-S36057, FlashPlate; for A6: inhibition of radioligand binding, human melanin-concentrating hormone (MCH1): [125I]-S36057
T6 construct: purchased Perkin Elmer Biosignal
T6 sequence (Q99705 whole entry): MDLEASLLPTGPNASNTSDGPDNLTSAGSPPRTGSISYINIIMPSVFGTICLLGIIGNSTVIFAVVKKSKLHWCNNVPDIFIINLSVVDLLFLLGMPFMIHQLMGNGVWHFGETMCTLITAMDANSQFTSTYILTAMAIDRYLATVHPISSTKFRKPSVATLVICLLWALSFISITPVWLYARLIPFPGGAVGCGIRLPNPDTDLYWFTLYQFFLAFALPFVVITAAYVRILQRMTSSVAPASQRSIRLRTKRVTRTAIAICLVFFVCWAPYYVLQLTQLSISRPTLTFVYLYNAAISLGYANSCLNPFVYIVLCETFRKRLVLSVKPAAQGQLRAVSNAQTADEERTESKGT
In short: as §1

Human μ-opioid (MOP) = target: T7, Human μ-opioid (MOP) (Homo sapiens, UniProt P35372); assay: Radioligand binding, human μ-opioid (MOP) membranes, FlashPlate, [3H]-Naloxone; settings: compound at 10 μM, [3H]-Naloxone; for A7: inhibition of radioligand binding: FlashPlate
T7 construct: purchased Perkin Elmer Biosignal
T7 sequence (P35372 whole entry): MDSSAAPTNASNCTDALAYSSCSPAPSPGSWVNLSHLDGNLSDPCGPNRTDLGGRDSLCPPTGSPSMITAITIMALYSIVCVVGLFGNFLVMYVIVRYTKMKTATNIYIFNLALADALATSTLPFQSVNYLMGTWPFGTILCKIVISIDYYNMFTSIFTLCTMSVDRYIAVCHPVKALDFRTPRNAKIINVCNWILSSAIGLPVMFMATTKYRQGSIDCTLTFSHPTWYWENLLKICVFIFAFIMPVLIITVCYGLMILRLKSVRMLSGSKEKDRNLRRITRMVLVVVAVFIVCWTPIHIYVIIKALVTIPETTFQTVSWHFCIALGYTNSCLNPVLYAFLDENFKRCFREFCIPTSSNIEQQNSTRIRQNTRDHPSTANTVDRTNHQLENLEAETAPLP
In short: as §1

Human neurokinin (NK1) = target: T8, Human neurokinin (NK1) (Homo sapiens, UniProt P25103); assay: Radioligand binding, human neurokinin NK1 membranes, filtration, [125I]-Substance P; settings: compound at 10 μM, [125I]-Substance P; for A8: inhibition of radioligand binding: filtration
T8 construct: purchased Perkin Elmer Biosignal
T8 sequence (P25103 whole entry): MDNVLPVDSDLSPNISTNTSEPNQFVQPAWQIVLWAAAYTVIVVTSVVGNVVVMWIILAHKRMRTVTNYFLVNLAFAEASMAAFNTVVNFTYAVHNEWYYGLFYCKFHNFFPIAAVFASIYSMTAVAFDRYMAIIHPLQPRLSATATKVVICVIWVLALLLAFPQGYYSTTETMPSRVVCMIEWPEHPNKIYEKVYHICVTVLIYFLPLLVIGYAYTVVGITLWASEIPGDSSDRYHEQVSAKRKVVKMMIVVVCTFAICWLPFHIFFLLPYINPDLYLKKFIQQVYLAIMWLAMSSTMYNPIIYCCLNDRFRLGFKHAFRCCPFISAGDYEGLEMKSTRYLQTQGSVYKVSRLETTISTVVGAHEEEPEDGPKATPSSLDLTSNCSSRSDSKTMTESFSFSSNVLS
In short: as §2

[2] = target: T9, Human neuropeptide Y (NPY-Y1) (Homo sapiens, UniProt P25929); assay: Radioligand binding, human neuropeptide Y NPY-Y1 membranes, FlashPlate, [125I]-PYY; settings: compound at 10 μM, [125I]-PYY; for A9: inhibition of radioligand binding: FlashPlate
T9 construct: purchased Perkin Elmer Biosignal
T9 sequence (P25929 1-384): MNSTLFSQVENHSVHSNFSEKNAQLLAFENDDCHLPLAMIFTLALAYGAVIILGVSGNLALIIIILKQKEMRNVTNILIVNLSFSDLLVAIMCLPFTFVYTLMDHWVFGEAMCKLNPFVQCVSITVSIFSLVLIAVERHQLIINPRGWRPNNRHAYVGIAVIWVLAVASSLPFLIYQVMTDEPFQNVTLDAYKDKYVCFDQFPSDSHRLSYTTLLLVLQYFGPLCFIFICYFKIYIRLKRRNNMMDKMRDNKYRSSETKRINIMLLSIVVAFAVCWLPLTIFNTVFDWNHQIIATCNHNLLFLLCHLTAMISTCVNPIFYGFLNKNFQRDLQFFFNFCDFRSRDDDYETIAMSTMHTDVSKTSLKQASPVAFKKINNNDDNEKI
In short: as §1

Human opioid (ORL1) = target: T10, Human opioid (ORL1) (Homo sapiens, UniProt P41146); assay: Radioligand binding, human opioid ORL1 membranes, FlashPlate, [125I]-Nociceptin; settings: compound at 10 μM, [125I]-Nociceptin; for A10: inhibition of radioligand binding: FlashPlate
T10 construct: purchased Perkin Elmer Biosignal
T10 sequence (P41146 whole entry): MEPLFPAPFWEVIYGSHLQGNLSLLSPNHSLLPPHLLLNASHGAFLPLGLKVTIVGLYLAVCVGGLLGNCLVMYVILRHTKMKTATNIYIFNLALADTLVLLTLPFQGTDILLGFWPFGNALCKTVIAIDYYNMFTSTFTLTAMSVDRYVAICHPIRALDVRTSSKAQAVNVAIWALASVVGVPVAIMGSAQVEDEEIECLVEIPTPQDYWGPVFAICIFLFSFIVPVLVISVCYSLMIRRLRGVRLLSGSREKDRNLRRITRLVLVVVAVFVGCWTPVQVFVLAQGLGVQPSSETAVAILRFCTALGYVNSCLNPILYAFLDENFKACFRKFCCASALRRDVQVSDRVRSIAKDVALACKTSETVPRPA
In short: as §1

Mouse urotensin (mUR2) = target: T11, Mouse urotensin (mUR2) (Mus musculus, UniProt Q8VIH9); assay: Radioligand binding, mouse urotensin mUR2 membranes, FlashPlate, [125I]-Urotensin II; settings: compound at 10 μM, [125I]-Urotensin II; for A11: inhibition of radioligand binding: FlashPlate
T11 construct: purchased Perkin Elmer Biosignal
T11 sequence (Q8VIH9 1-385): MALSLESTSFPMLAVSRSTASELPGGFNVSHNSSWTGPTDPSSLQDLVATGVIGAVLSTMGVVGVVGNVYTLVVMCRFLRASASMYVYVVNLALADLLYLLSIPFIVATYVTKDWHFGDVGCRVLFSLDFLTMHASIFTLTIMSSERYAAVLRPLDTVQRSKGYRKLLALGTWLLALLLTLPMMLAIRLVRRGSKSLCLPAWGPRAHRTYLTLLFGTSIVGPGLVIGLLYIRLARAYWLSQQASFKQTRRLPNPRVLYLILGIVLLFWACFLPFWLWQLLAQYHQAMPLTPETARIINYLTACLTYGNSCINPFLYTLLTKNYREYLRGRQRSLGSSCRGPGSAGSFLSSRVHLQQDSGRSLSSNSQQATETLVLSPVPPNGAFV
In short: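 Cloned mouse urotensin (mUR2) receptor membranes from Perkin Elmer Biosignal were immobilized in FlashPlate microplates using a proprietary coating. Each well got 19.5 μl buffer, then 0.5 μl of DMSO, reference ligand, or compound. Adding 5 μl of [125I]-Urotensin II, diluted to 5× final concentration in binding buffer, started binding. Plates were sealed with TopSeal-A and incubated 1 hour at room temperature in the dark. Wells were counted for 30 seconds each on a TopCount after a 60-second delay, and percentage inhibition was calculated.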

T1 sequence (P41143 whole entry): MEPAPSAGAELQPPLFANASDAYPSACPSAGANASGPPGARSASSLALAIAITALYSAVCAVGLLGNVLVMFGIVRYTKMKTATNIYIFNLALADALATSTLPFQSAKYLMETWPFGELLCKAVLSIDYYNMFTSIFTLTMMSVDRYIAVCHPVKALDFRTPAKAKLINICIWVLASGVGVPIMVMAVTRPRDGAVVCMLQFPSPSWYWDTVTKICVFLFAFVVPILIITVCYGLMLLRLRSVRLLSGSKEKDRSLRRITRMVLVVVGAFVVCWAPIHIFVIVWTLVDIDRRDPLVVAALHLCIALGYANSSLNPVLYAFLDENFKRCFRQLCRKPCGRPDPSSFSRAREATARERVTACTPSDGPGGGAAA

| Compound | A1: inhibition of radioligand binding (Human δ-opioid (DOP)) | A2: inhibition of radioligand binding (Human κ-Opioid (KOP)) | A3: inhibition of radioligand binding (Human Melanocortin (MC3)) | A4: inhibition of radioligand binding (Human Melanocortin (MC4)) | A5: inhibition of radioligand binding (Human melanocortin (MC5)) | A6: inhibition of radioligand binding [1] | A7: inhibition of radioligand binding (Human μ-opioid (MOP)) | A8: inhibition of radioligand binding (Human neurokinin (NK1)) | A9: inhibition of radioligand binding [2] | A10: inhibition of radioligand binding (Human opioid (ORL1)) | A11: inhibition of radioligand binding (Mouse urotensin (mUR2)) | A1: inhibition of radioligand binding, human δ-opioid (DOP) (Human δ-opioid (DOP)) | A2: inhibition of radioligand binding, human κ-opioid (KOP) (Human κ-Opioid (KOP)) | A3: inhibition of radioligand binding, human melanocortin (MC3) (Human Melanocortin (MC3)) | A4: inhibition of radioligand binding, human melanocortin (MC4) (Human Melanocortin (MC4)) | A5: inhibition of radioligand binding, human melanocortin (MC5) (Human melanocortin (MC5)) | A6: inhibition of radioligand binding, human melanin-concentrating hormone (MCH1) [1] | A7: inhibition of radioligand binding, human μ-opioid (MOP) (Human μ-opioid (MOP)) | A8: inhibition of radioligand binding, human neurokinin (NK1) (Human neurokinin (NK1)) | A9: inhibition of radioligand binding, human neuropeptide Y (NPY-Y1) [2] | also measured |
| --- | --- | --- | --- | --- | --- | --- | --- | --- | --- | --- | --- | --- | --- | --- | --- | --- | --- | --- | --- | --- | --- |
| CSC1O[C@H](COCc2ccc3ccccc3c2)[C@@H](O)[C@@H](OCc2ccc(Cl)cc2)[C@H]1NC(=O)CNC(=N)N (stereo partly shown) [compound 281] | − (“−” indicates less than 50% inhibition at 10 μM) | − (“−” indicates less than 50% inhibition at 10 μM) | + (“+” indicates greater than 50% inhibition at 10 μM) | + (“+” indicates greater than 50% inhibition at 10 μM) | + (“+” indicates greater than 50% inhibition at 10 μM) | − (“−” indicates less than 50% inhibition at 10 μM) | − (“−” indicates less than 50% inhibition at 10 μM) | + (“+” indicates greater than 50% inhibition at 10 μM) | − (“−” indicates less than 50% inhibition at 10 μM) | − (“−” indicates less than 50% inhibition at 10 μM) | − (“−” indicates less than 50% inhibition at 10 μM) | – | – | – | – | – | – | – | – | – | – |
| CSC1O[C@H](COCc2ccc3ccccc3c2)[C@@H](O)[C@@H](OCc2ccc(Cl)cc2)[C@H]1NC(=O)CCN (stereo partly shown) [compound 282] | − (“−” indicates less than 50% inhibition at 10 μM) | − (“−” indicates less than 50% inhibition at 10 μM) | − (“−” indicates less than 50% inhibition at 10 μM) | + (“+” indicates greater than 50% inhibition at 10 μM) | − (“−” indicates less than 50% inhibition at 10 μM) | − (“−” indicates less than 50% inhibition at 10 μM) | − (“−” indicates less than 50% inhibition at 10 μM) | + (“+” indicates greater than 50% inhibition at 10 μM) | − (“−” indicates less than 50% inhibition at 10 μM) | − (“−” indicates less than 50% inhibition at 10 μM) | − (“−” indicates less than 50% inhibition at 10 μM) | – | – | – | – | – | – | – | – | – | – |
| CSC1O[C@H](COCc2ccc3ccccc3c2)[C@@H](O)[C@@H](OCc2ccc(Cl)cc2)[C@H]1NC(=O)CCNC(=N)N (stereo partly shown) [compound 283] | − (“−” indicates less than 50% inhibition at 10 μM) | − (“−” indicates less than 50% inhibition at 10 μM) | − (“−” indicates less than 50% inhibition at 10 μM) | + (“+” indicates greater than 50% inhibition at 10 μM) | + (“+” indicates greater than 50% inhibition at 10 μM) | − (“−” indicates less than 50% inhibition at 10 μM) | − (“−” indicates less than 50% inhibition at 10 μM) | + (“+” indicates greater than 50% inhibition at 10 μM) | − (“−” indicates less than 50% inhibition at 10 μM) | − (“−” indicates less than 50% inhibition at 10 μM) | − (“−” indicates less than 50% inhibition at 10 μM) | – | – | – | – | – | – | – | – | – | – |
| CSC1O[C@H](COCc2ccccc2)[C@@H](O)[C@@H](OCc2ccc(-c3ccccc3)cc2)[C@H]1NC(=O)CNC(=N)N (stereo partly shown) [compound 284] | – | – | – | – | – | – | – | – | – | – | – | − (“−” indicates less than 50% inhibition at 10 μM) | − (“−” indicates less than 50% inhibition at 10 μM) | − (“−” indicates less than 50% inhibition at 10 μM) | + (“+” indicates greater than 50% inhibition at 10 μM) | + (“+” indicates greater than 50% inhibition at 10 μM) | − (“−” indicates less than 50% inhibition at 10 μM) | − (“−” indicates less than 50% inhibition at 10 μM) | + (“+” indicates greater than 50% inhibition at 10 μM) | − (“−” indicates less than 50% inhibition at 10 μM) | A10: inhibition of radioligand binding, human opioid (ORL1) (Human opioid (ORL1)): − (“−” indicates less than 50% inhibition at 10 μM); A11: inhibition of radioligand binding, mouse urotensin (mUR2) (Mouse urotensin (mUR2)): − (“−” indicates less than 50% inhibition at 10 μM) |
| CSC1O[C@H](COCc2ccccc2)[C@@H](O)[C@@H](OCc2ccc(-c3ccccc3)cc2)[C@H]1NC(=O)CCN (stereo partly shown) [compound 285] | – | – | – | – | – | – | – | – | – | – | – | − (“−” indicates less than 50% inhibition at 10 μM) | − (“−” indicates less than 50% inhibition at 10 μM) | − (“−” indicates less than 50% inhibition at 10 μM) | − (“−” indicates less than 50% inhibition at 10 μM) | − (“−” indicates less than 50% inhibition at 10 μM) | − (“−” indicates less than 50% inhibition at 10 μM) | − (“−” indicates less than 50% inhibition at 10 μM) | + (“+” indicates greater than 50% inhibition at 10 μM) | − (“−” indicates less than 50% inhibition at 10 μM) | A10: inhibition of radioligand binding, human opioid (ORL1) (Human opioid (ORL1)): − (“−” indicates less than 50% inhibition at 10 μM); A11: inhibition of radioligand binding, mouse urotensin (mUR2) (Mouse urotensin (mUR2)): − (“−” indicates less than 50% inhibition at 10 μM) |
